Data as given in US4061637A, “Certain 4-aryl-5-(4-phenylpiperazino)alkyl-4-thiazolin-2-ones” (priority 1974, dated 1977).
Counter-ions that a name gives are not always drawn. Like-named read-outs stand apart in the source and are kept apart here.

Experiments:
[1] = Acute toxicity under LD50 mouse; settings: in vivo, ip
[2] = system: nor-adrenalin; experiment: Antagonism towards a lethal dose of nor-adrenalin in the rat (α-adrenolytic activity); assay type: in vivo; settings: for ED50: Rattus norvegicus, po, 1 h, read-out: α-adrenolytic activity lethal NA rat ED50
Procedure: Antagonism towards a lethal dose of nor-adrenalin in the rat
The animals are treated with a dose of nor-adrenalin (0.5 mg/kg) which is 100% lethal in animals. The activity is calculated by the number of animals protected from death by prior administration of the drug under examination one hour before the agonist. Where possible the ED50 was calculated.

[3] = Pinching the tail of the mouse (systemic analgesic activity); assay type: in vivo; settings: po, 0.5 h; for inhibition in vivo at 200 mg/kg: 200 mg/kg os
Procedure: To evaluate the analgesic activity, the method described by Bianchi and colleagues (Brit. J. Pharmacol., 9, 280, 1954) was followed which consists of applying an arterial pincer to the base of the tail in animals treated orally 30 minutes previously with the drug under examination, observing that the control animals react to the pain by squealing.

[4] = Ulcers by constriction (stress) in the rat; assay type: in vivo; settings: 4 h; for responders at 10 mg/kg / inhibition in vivo at 10 mg/kg: 10 mg/kg ip; for responders at 10 mg/kg / responders at 30 mg/kg: read-out: Anti-ulcer activity, ulcers by stress in the rat, Protected rats %; for inhibition in vivo at 10 mg/kg / inhibition in vivo at 30 mg/kg: read-out: Anti-ulcer activity, ulcers by stress in the rat, Reduction in ulcers %
Procedure: The method described by Rossi and colleagues (Compt. Rend. Soc. Biol., 150, 2124, 1956) was followed in which the formation of gastric ulcers is induced by immobilising the animal, in a state of fast for 48 hours, in a net for a period of 4 hours.
The protection given by treatment with the drug under examination before the beginning of the constriction period is evaluated by counting both the ulcers and the number of subjects without ulcers.

[5] = Cataleptic activity in the mouse; assay type: in vivo; settings: po, read-out: Cataleptic activity mouse ED50
[6] = Carrageen oedema in the conscious rat (anti-inflammatory activity); assay type: in vivo
Procedure: Anti-inflammatory activity was evaluated by the method of Winter and colleagues (Proc. Soc. Exp. Biol., 111, 544, 1962) by endoperitoneally injecting the product under examination one hour before inducing oedema by injecting 0.05 ml. of a 1% suspension of carrageen (intradermally into the plantar portion of a rear paw).
The difference between the volume of the paw determined plethysmographically one hour before and three hours after the carrageen gives a quantitative estimate of the activity of the product tested. Where possible, the ED30 was calculated.

[7] = Inhibition of spontaneous motility in the mouse; assay type: in vivo; settings: for ED50: po, 0.5 h, read-out: Spontaneous motility inhibition mouse ED50
Procedure: This is evaluated by an actophotometric method, which consists of placing the mice, 30 minutes after oral treatment with the drug or the carrier, in a cage provided with a photoelectric cell counter and counting the number of times the photoelectric cell is passed during a 10 minute stay.

[8] = Antagonism towards electric shock convulsions in the mouse; assay type: in vivo; settings: po, 0.5 h, read-out: Anti-convulsion activity, electric shock, mouse, % att.; for inhibition in vivo at 200 mg/kg: 200 mg/kg os
Procedure: This is evaluated by observing the protection given by pretreatment with the drug (30 minutes) against tonic convulsions obtained by applying a 35 volt current to the eyeballs.

[9] = mouse, os, 30 minutes after treatment

Compound: COc1ccc(-c2[nH]c(=O)sc2CCN2CCN(c3ccccc3)CC2)cc1 [LR 639, 4-p-methoxyphenyl-5-β-(N'-phenylpiperazino)ethyl-4-thiazolin-2-one]
- LD50 [1]: > 1000 mg/kg
- ED50 [2]: 45 mg/kg
- inhibition in vivo at 200 mg/kg ([3]; mouse, 30 minutes): 0%
- responders at 10 mg/kg ([4]; rat): 30%
- inhibition in vivo at 10 mg/kg ([4]; rat): 28%
- ED50 ([5]; mouse, os): 88 mg/kg
- Anti-inflammatory activity carrageenin oedema rat, percentage activity (ED30 lacking) ([6]; 200 mg/kg ip): 8.1%
- ED50 [7, 9]: 33 mg/kg
- inhibition in vivo at 200 mg/kg ([8]; mouse, 35 volt): 0%

Compound: CC(=O)n1c(-c2ccc(F)cc2)c(CCN2CCN(c3ccccc3)CC2)sc1=O [LR 653, 3-acetyl-4-p-fluorophenyl-5-β-(N'-phenylpiperazino)-ethyl-4-thiazolin-2-one]
- LD50 [1]: 420 mg/kg
- ED50 [2]: 12.8 mg/kg
- inhibition in vivo at 100 mg/kg ([3]; mouse, 100 mg/kg os, 30 minutes): 20%
- ED50 ([5]; mouse, os): 80 mg/kg
- Anti-inflammatory activity carrageenin oedema rat, percentage activity (ED30 lacking) ([6]; 100 mg/kg ip): 25.4%
- ED50 [7, 9]: 11.6 mg/kg
- inhibition in vivo at 100 mg/kg ([8]; mouse, 100 mg/kg os, 35 volt): 20%

Compound: O=c1[nH]c(-c2ccc(F)cc2)c(CCN2CCN(c3ccccc3)CC2)s1 [LR 599, 4-p-fluorophenyl-5-β-(N'-phenylpiperazino)ethyl-4-thiazolin-2-one]
- LD50 [1]: > 1000 mg/kg
- ED50 [2]: 45 mg/kg
- inhibition in vivo at 200 mg/kg ([3]; mouse, 30 minutes): 30%
- responders at 30 mg/kg ([4]; rat, 30 mg/kg ip): 20%
- inhibition in vivo at 30 mg/kg ([4]; rat, 30 mg/kg ip): 48%
- ED50 ([5]; mouse, os): 200 mg/kg
- Anti-inflammatory activity carrageenin oedema rat, percentage activity (ED30 lacking) ([6]; 200 mg/kg ip): 20%
- ED50 [7, 9]: 69.2 mg/kg
- inhibition in vivo at 200 mg/kg ([8]; mouse, 35 volt): 0%

Compound: O=c1[nH]c(-c2ccc(Cl)cc2)c(CN2CCCCC2)s1 [LR 659, 4-p-chlorophenyl-5-piperidinomethyl-4-thiazolin-2-one]
- LD50 [1]: > 1000 mg/kg
- inhibition in vivo at 200 mg/kg ([3]; mouse, 30 minutes): 0%
- responders at 10 mg/kg ([4]; rat): 50%
- inhibition in vivo at 10 mg/kg ([4]; rat): 50%
- inhibition in vivo at 200 mg/kg ([8]; mouse, 35 volt): 30%

Compound: O=c1[nH]c(-c2ccc(F)cc2)c(CCN2CCC3(CC2)OCCCCO3)s1 [LR 648, 4-p-fluorophenyl-5-β-[7,12-dioxa-3-azaspiro[5,6]-dodec-3-yl]-ethyl-4-thiazolin-2-one hydrochloride]
- LD50 [1]: 125 mg/kg
- α-adrenolytic activity lethal NA rat, percentage activity (ED50 lacking) ([2]; 7 mg/kg os): 0%
- inhibition in vivo at 26 mg/kg ([3]; mouse, 26 mg/kg os, 30 minutes): 0%
- responders at 10 mg/kg ([4]; rat): 10%
- inhibition in vivo at 10 mg/kg ([4]; rat): 32%
- Spontaneous motility inhibition mouse, percentage activity (ED50 lacking) ([7]; mouse, 26 mg/kg os): 20%
- inhibition in vivo at 26 mg/kg ([8]; mouse, 26 mg/kg os, 35 volt): 20%

Compound: O=c1[nH]c(-c2ccc(F)cc2)c(CCN2CCC(O)(c3ccc(Cl)cc3)CC2)s1 [LR 613, 4-p-fluorophenyl-5-β-[(4'-hydroxy-4'-p-chlorophenyl)-piperidino]-ethyl-4-thiazolin-2-one hydrochloride]
- LD50 [1]: 300 mg/kg
- α-adrenolytic activity lethal NA rat, percentage activity (ED50 lacking) ([2]; 15 mg/kg os): 20%
- inhibition in vivo at 60 mg/kg ([3]; Mus musculus, read-out: Systemic analgesic activity, tail pinching in mouse, %): 10%
- responders at 30 mg/kg ([4]; Rattus norvegicus, ip): 60%
- inhibition in vivo at 30 mg/kg ([4]; Rattus norvegicus, ip): 80%
- ED50 ([5]; Mus musculus): 32.4 mg/kg
- Anti-inflammatory activity carrageenin oedema rat, percentage activity (ED30 lacking) ([6]; 60 mg/kg ip): 15.2%
- ED50 ([7]; Mus musculus): 18 mg/kg
- inhibition in vivo at 60 mg/kg ([8]; Mus musculus): 10%
